Values joined by “and” are separate entries in the source; they are usually repeats but may differ in a detail not shown here. Identical values can stand only once. Like-named read-outs stand apart in the source and are kept apart here.
Legend:
C4-LysR = assay: GFP reporter inserted at C4-LysR position; type: cell-based, Pseudomonas denitrificans; conditions: w 3-HP 25 mM
Description: (§1) The effect of the O1 and O2 operators on biosynthesis of the C4-LysR protein and the mmsadh expression was examined by using a green fluorescent protein (GFP) as a reporter (Table 2). In Table 2, the effect of the C4-LysR protein and the O1 and O2 operators on the expression of the C4-LysR and the mmsadh. The relative size of the GFP was shown relative to the wild type in the absence of 3-HP. the C4-LysR protein was either not present or was produced by a constitutive promoter, and a plasmid was prepared to control the expression of the GFP upon the existing promoter having the O1 and O2 operators. Then, the experiment was carried out by inserting the prepared plasmid into a host of P. denitrificans from which genes between the C4-LysR and the mmsadh was deleted. Accordingly, the expression of the GFP was suppressed by the C4-LysR protein itself. That is, when the C4-LysR is expressed, the GFP expression was reduced by more than 10-fold. In addition, the expression regulation was also constant regardless of the presence of 3-HP. In this regard, it was confirmed that the transcription of C4-LysR mRNA was negatively regulated by the C4-LysR protein. This experiment was repeated by using a promoter that randomized the O1 and O2 operators to eliminate the symmetrical dyad. As a result, in the case where the O1 or O2 operator site was randomized, the GFP expression was not regulated by the C4-LysR protein, referring that the C4-LysR protein in the P. denitrificans strain was negatively regulated by the strain itself.

[1] = tested on: 3hpdh, 3hibdhIV, and mmsadh; assay: Inducer specificity of gene expression (FIGS. 4 and 5); type: cell-based, Pseudomonas denitrificans
3hpdh = assay: RT-PCR relative mRNA level of 3-HP catabolic gene
mmsadh [2] = type: cell-based, microorganisms shown in Table 1
mmsadh [3] = assay: GFP reporter inserted at mmsadh position; type: cell-based, Pseudomonas denitrificans; conditions: w 3-HP 25 mM
Description: as §1
Meanwhile, the effect of the O1 and O2 operators on the mmsadh gene expression was examined in a similar manner. That is, the C4-LysR protein was constitutively expressed, and a plasmid was prepared so that GFP can be located after a promoter having O1 and O2 promoters. Here, an O1 or O2 operator was mutated so that the symmetrical dyad of an O1 or O2 site was randomized. As a result, when the O1 or O2 site was mutated, the phenomenon of up-regulation of transcription by 3-HP disappeared. That is, it means that the O1 and O2 operators are all essential sites for up-regulation of the expression by 3-HP.

mmsadh [4] = assay: RT-PCR relative mRNA level of 3-HP catabolic gene
[5] = cells exposed to 25 mmol/L 3-HP vs no 3-HP, M9 medium, rpoD reference gene

SMILES: O=C(O)CCO [3-HP, 3-hydroxypropionic acid]
- relative size of GFP (relative to wild type in the absence of 3-HP) (C4-LysR; O1 & O2 mutation): 10
- relative size of GFP (relative to wild type in the absence of 3-HP) (C4-LysR; O1 mutation): 10
- relative size of GFP (relative to wild type in the absence of 3-HP) (C4-LysR; O2 mutation): 1
- relative size of GFP (relative to wild type in the absence of 3-HP) (C4-LysR; wildtype): 1
- relative size of GFP (relative to wild type in the absence of 3-HP) (C4-LysR; ΔC4-LysR): 10
- inducer of expression of mmsadh and 3hibdhIV ([1]; FIG. 4): acts as an inducer
- amplification of the genes 3hpdh, 3hibdhIV and mmsadh by the compound ([1]; FIGS. 4 and 5): amplified
- inducer of expression of 3hpdH (3hpdh; FIG. 5): acts as an inducer
- fold increase of 3hpdh mRNA expression (3hpdh; [5]): 46 fold
- 3hpdh expression on addition of 3-HP (3hpdh; strain with C3 LysR gene removed): not amplified
- Relative mRNA level mmsadh + 3-HP (mmsadh [2]): 5.21 and 5.19
- Relative mRNA level mmsadh + 3-HP (mmsadh [2]; Achromobacter denitrificans, + 3-HP): 6.34
- Relative mRNA level mmsadh + 3-HP (mmsadh [2]; Acidovorax avenae subsp., + 3-HP): 5.98
- Relative mRNA level mmsadh + 3-HP (mmsadh [2]; Acidovorax sp., + 3-HP): 6.04
- Relative mRNA level mmsadh + 3-HP (mmsadh [2]; Acinetobacter baumannii, + 3-HP): 5.76
- Relative mRNA level mmsadh + 3-HP (mmsadh [2]; Aeromonas hydrophilia, + 3-HP): 6.14
- Relative mRNA level mmsadh + 3-HP (mmsadh [2]; Agrobacterium sp., + 3-HP): 6.56
- Relative mRNA level mmsadh + 3-HP (mmsadh [2]; Alcaligenes faecalis, + 3-HP): 5.73
- Relative mRNA level mmsadh + 3-HP (mmsadh [2]; Alcanivorax hongdengensis, + 3-HP): 6.58
- Relative mRNA level mmsadh + 3-HP (mmsadh [2]; Alicychphilus denitrificans, + 3-HP): 6.01
- Relative mRNA level mmsadh + 3-HP (mmsadh [2]; Alteromonas marina, + 3-HP): 5.73
- Relative mRNA level mmsadh + 3-HP (mmsadh [2]; Amycolatopsis sp., + 3-HP): 6.05
- Relative mRNA level mmsadh + 3-HP (mmsadh [2]; Anaeromyxobacter dehalogenans, + 3-HP): 5.44
- Relative mRNA level mmsadh + 3-HP (mmsadh [2]; Azospirillum brasilensse, + 3-HP): 6.05
- Relative mRNA level mmsadh + 3-HP (mmsadh [2]; Azotobacter vinelandii, + 3-HP): 5.87
- Relative mRNA level mmsadh + 3-HP (mmsadh [2]; Beijerinckia indica, + 3-HP): 5.01
- Relative mRNA level mmsadh + 3-HP (mmsadh [2]; Bordetella avium, + 3-HP): 4.98
- Relative mRNA level mmsadh + 3-HP (mmsadh [2]; Bradyrhizobium japonicum, + 3-HP): 5.49
- Relative mRNA level mmsadh + 3-HP (mmsadh [2]; Burkholderia ambifaria, + 3-HP): 5.13
- Relative mRNA level mmsadh + 3-HP (mmsadh [2]; Castellaniella defragrans, + 3-HP): 5.98
- Relative mRNA level mmsadh + 3-HP (mmsadh [2]; Catenulispora acidiphilia, + 3-HP): 5.24
- Relative mRNA level mmsadh + 3-HP (mmsadh [2]; Caulobacter sp., + 3-HP): 5.96
- Relative mRNA level mmsadh + 3-HP (mmsadh [2]; Chromobacterium violaceum, + 3-HP): 6.31
- Relative mRNA level mmsadh + 3-HP (mmsadh [2]; Collimonas arenae, + 3-HP): 5.87
- Relative mRNA level mmsadh + 3-HP (mmsadh [2]; Comamonas testosteroni, + 3-HP): 4.96
- Relative mRNA level mmsadh + 3-HP (mmsadh [2]; Corynebacterium vitaeruminis, + 3-HP): 5.89
- Relative mRNA level mmsadh + 3-HP (mmsadh [2]; Cupriavidus necator, + 3-HP): 6.05
- Relative mRNA level mmsadh + 3-HP (mmsadh [2]; Curvibacter gracilus, + 3-HP): 3.99
- Relative mRNA level mmsadh + 3-HP (mmsadh [2]; Delftia acidovorans, + 3-HP): 4.03
- Relative mRNA level mmsadh + 3-HP (mmsadh [2]; Ferrimonas balearica, + 3-HP): 5.17
- Relative mRNA level mmsadh + 3-HP (mmsadh [2]; Glaciecola nitratireducens, + 3-HP): 4.81
- Relative mRNA level mmsadh + 3-HP (mmsadh [2]; Gordonia bronchialis, + 3-HP): 5.21
- Relative mRNA level mmsadh + 3-HP (mmsadh [2]; Hahella chijuensis, + 3-HP): 5.97
- Relative mRNA level mmsadh + 3-HP (mmsadh [2]; Halomonas elongata, + 3-HP): 4.34
- Relative mRNA level mmsadh + 3-HP (mmsadh [2]; Hirschia litorea, + 3-HP): 4.56
- Relative mRNA level mmsadh + 3-HP (mmsadh [2]; Idiomarina sp., + 3-HP): 5.43
- Relative mRNA level mmsadh + 3-HP (mmsadh [2]; Janthinobacterium lividum, + 3-HP): 5.01
- Relative mRNA level mmsadh + 3-HP (mmsadh [2]; Kitasatospora setae, + 3-HP): 5.25
- Relative mRNA level mmsadh + 3-HP (mmsadh [2]; Kutzneria albida, + 3-HP): 5.61
- Relative mRNA level mmsadh + 3-HP (mmsadh [2]; Methylobacterium sp., + 3-HP): 598
- Relative mRNA level mmsadh + 3-HP (mmsadh [2]; Methylocystis sp., + 3-HP): 4.91
- Relative mRNA level mmsadh + 3-HP (mmsadh [2]; Novosphingobium sp., + 3-HP): 6.04
- Relative mRNA level mmsadh + 3-HP (mmsadh [2]; Oceanimonas smirnovii, + 3-HP): 4.88
- Relative mRNA level mmsadh + 3-HP (mmsadh [2]; Paracoccus sp., + 3-HP): 4.96
- Relative mRNA level mmsadh + 3-HP (mmsadh [2]; Parvibaculum lavamentivorans, + 3-HP): 4.99
- Relative mRNA level mmsadh + 3-HP (mmsadh [2]; Phenylobacterium kunshanensis, + 3-HP): 5.02
- Relative mRNA level mmsadh + 3-HP (mmsadh [2]; Photobacterium gaetbuleda, + 3-HP): 5.06
- Relative mRNA level mmsadh + 3-HP (mmsadh [2]; Polynucleobacter necessarius asymbioticus, + 3-HP): 5.37
- Relative mRNA level mmsadh + 3-HP (mmsadh [2]; Pseudoalteromonas carrgeenovora, + 3-HP): 5.03
- Relative mRNA level mmsadh + 3-HP (mmsadh [2]; Pseudogulbenkiania sp., + 3-HP): 5.36
- Relative mRNA level mmsadh + 3-HP (mmsadh [2]; Pseudomonas denitrificans ATCC13867, + 3-HP): 5.43
- Relative mRNA level mmsadh + 3-HP (mmsadh [2]; Pseudomonas fluorescens, + 3-HP): 4.70
- Relative mRNA level mmsadh + 3-HP (mmsadh [2]; Pseudomonas knackmussii, + 3-HP): 5.96
- Relative mRNA level mmsadh + 3-HP (mmsadh [2]; Pseudomonas protegens, + 3-HP): 5.01
- Relative mRNA level mmsadh + 3-HP (mmsadh [2]; Pseudoxanthomonas spadix, + 3-HP): 4.96
- Relative mRNA level mmsadh + 3-HP (mmsadh [2]; Psychrobacter phenylpyruvicus, + 3-HP): 5.03
- Relative mRNA level mmsadh + 3-HP (mmsadh [2]; Rhodomicrobium vannielli, + 3-HP): 6.02
- Relative mRNA level mmsadh + 3-HP (mmsadh [2]; Segniliparus rotundus, + 3-HP): 4.32
- Relative mRNA level mmsadh + 3-HP (mmsadh [2]; Shewanella oneidensis, + 3-HP): 4.07
- Relative mRNA level mmsadh + 3-HP (mmsadh [2]; Simiduia agarovorans, + 3-HP): 4.87
- Relative mRNA level mmsadh + 3-HP (mmsadh [2]; Sinorhizobium meliloti, + 3-HP): 4.07
- Relative mRNA level mmsadh + 3-HP (mmsadh [2]; Sphingobium chlorophenolicum, + 3-HP): 4.86
- Relative mRNA level mmsadh + 3-HP (mmsadh [2]; Sphingomonas wittichii, + 3-HP): 6.42
- Relative mRNA level mmsadh + 3-HP (mmsadh [2]; Sphingopyxis alaskensis, + 3-HP): 6.94
- Relative mRNA level mmsadh + 3-HP (mmsadh [2]; Stenotrophomonas maltophilia, + 3-HP): 5.21
- Relative mRNA level mmsadh + 3-HP (mmsadh [2]; Streptomyces nodosus, + 3-HP): 5.14
- Relative mRNA level mmsadh + 3-HP (mmsadh [2]; Tatlockia micdadei, + 3-HP): 5.65
- Relative mRNA level mmsadh + 3-HP (mmsadh [2]; Thalassospira xiamenensis, + 3-HP): 6.10
- Relative mRNA level mmsadh + 3-HP (mmsadh [2]; Variovorax paradoxus, + 3-HP): 4.97
- Relative mRNA level mmsadh + 3-HP (mmsadh [2]; Verminephrobacter eiseniae, + 3-HP): 5.14
- Relative mRNA level mmsadh + 3-HP (mmsadh [2]; Vibrio furnissii, + 3-HP): 4.91
- Relative mRNA level mmsadh + 3-HP (mmsadh [2]; Xanthobacter autotrophicus, + 3-HP): 5.41
- Relative mRNA level mmsadh + 3-HP (mmsadh [2]; Xanthomonas campestri, + 3-HP): 5.09
- increase of expression of mmsadh by 3-HP (mmsadh [2]; in the microorganisms (Table 7), 25 mM 3-HP in nutrient medium): 16 fold
- relative size of GFP (relative to wild type in the absence of 3-HP) (mmsadh [3]; O1 & O2 mutation): 3
- relative size of GFP (relative to wild type in the absence of 3-HP) (mmsadh [3]; O1 mutation): 3
- relative size of GFP (relative to wild type in the absence of 3-HP) (mmsadh [3]; O2 mutation): 3
- relative size of GFP (relative to wild type in the absence of 3-HP) (mmsadh [3]; wildtype): 55
- relative size of GFP (relative to wild type in the absence of 3-HP) (mmsadh [3]; ΔC4-LysR): 3
- fold increase of mmsadh mRNA expression (mmsadh [4]; [5]): 137 fold
- mmsadh expression on addition of 3-HP (mmsadh [4]; strain with C4 LysR gene removed): did not increase the expression
